Measurements from patent US20170239182A1, “PHARMACEUTICAL FORMULATIONS OF AND METHODS TO PREPARE CHELATING AGENTS FOR EFFICIENT METAL REMOVAL TREATMENT SYSTEMS” (ZONEONE PHARMA, INC., priority 2014, published 2017).
Structures can show the parent of a compound that is named as a salt.

How the values were obtained:
[1] = Plasma PK of DFO after IV administration of liposomal DFO or Desferal to mice; type: in vivo, CF-1 female mice; settings: 100 mg/kg
Procedure: Liposomes containing egg PC/Chol (3 mol/2 mol, LDFO-1), egg PC/DOPG/Chol (2.7 mol/0.3 mol/2 mol, LDFO-2), and HSPC/Chol (3 mol/2 mol, LDFO-4) containing 500 mM ammonium sulfate were prepared as in Example 1. DFO was remote loaded as in Example 20.
After loading the liposomes were purified by dialysis versus HBS pH 6.5. The liposomes were sterilized by filtration through 0.2 um PES filters and analyzed for drug and lipid content. The liposomal DFO were administered to CF-1 female mice at 100 mg/kg (n=3) and at various times the animals were sacrificed and blood taken.
After processing to plasma, DFO was extracted from plasma by mixing with 6 volumes of methanol containing 0.1% trifluoroacetic acid in an epppendorf tube. The mixtures were vortexed twice for 10 seconds then placed at −80° C. for 1 h. The samples were thawed and centrifuged for 12,000 rpm for 10 min at 4° C. and the supernatant analyzed for DFO by HPLC as described herein. […] By comparison DFO was undetectable beyond 1 h after dosing with Desferal®.

[2] = tested on: Iron Overloaded Mouse Model; assay: Liver iron removal from iron overloaded mouse model (ferrozine assay); type: in vivo, mice; settings: IV 100 mg/kg chelator on day 7 and day 10 after iron-dextran 100 mg/kg Fe
Procedure: LDFO formulations were prepared as described in Example 1. Both formulations were composed of HSPC/cholesterol (3/0.5 (mol/mol)). One formulation was prepared using 250 mM ammonium sulfate (LDFO-AS) as the trapping agent and the second formulation was prepared using 250 mM ascorbate phosphate (LDFO-AP) as the trapping agent and all other components and DFO loading procedures of the formulations were identical. Mice were overloaded with a single IV injection of iron-dextran at 100 mg/kg Fe. Overloaded mice were treated with each formulation IV at 100 mg/kg chelator on day 7 and day 10. The mice were sacrificed after the second treatment and the livers were analyzed for iron content using a ferrozine assay (Riemer et al. 2004)

## CC(=O)N(O)CCCCCNC(=O)CCC(=O)N(O)CCCCCNC(=O)CCC(=O)N(O)CCCCCN [Desferal, deferoxamine mesylate]
[1]; beyond 1 h after dosing
  DFO in plasma: undetectable
[1]; IV, 24 h
  initial dose (ID) of DFO retained in the plasma: undetectable

## CC(=O)N(O)CCCCCNC(=O)CCC(=O)N(O)CCCCCNC(=O)CCC(=O)N(O)CCCCCN [free DFO, Deferoxamine]
[2]
  mean liver iron content: 229 mg/kg
